From ChEMBL document CHEMBL1156829 (Proc Natl Acad Sci U S A, 2008)
pEC50: −log10 of the molar value. Numbered stars: 1 amine (or outer) side, 2 acyl side, 3 side chain; on linkers, the order of the positions; unused ones are H or OH. Bridge positions count the residues as written; N and C are the ends. Square brackets hold non-standard residues; d marks the D form. Peptide text beside a SMILES is read from it. I, II: the chains in the order shown. ξ: configuration not given here. Actinocin(9to1) = Cc1c2oc3c(C)ccc(C(=O)[*:1])c3nc-2c(C(=O)[*:2])c(N)c1=O; ξNMeV = CNC(C(=O)O)C(C)C; ξT = CC(O)C(N)C(=O)O; ξP = O=C(O)C1CCCN1; Sar = CNCC(=O)O

What was measured:
Plasmodium falciparum [1] = assay: NOVARTIS: Inhibition of Plasmodium falciparum 3D7 (drug-susceptible) proliferation in erythrocyte-based infection assay; assay type: functional, organism-based; conditions: Plasmodium falciparum, 3D7
Plasmodium falciparum [2] = assay: NOVARTIS: Inhibition of Plasmodium falciparum W2 (drug-resistant) proliferation in erythrocyte-based infection assay; assay type: functional, organism-based; conditions: Plasmodium falciparum, W2; read-out: EC50
[3] = NOVARTIS: Cytotoxicity against human hepatocellular carcinoma cell line (Huh7); assay type: toxicity, cell-based, Huh-7; conditions: Huh7 cells (hepatocellular carcinoma cell line)

| SMILES | pEC50 (Plasmodium falciparum [1]) | pEC50 (Plasmodium falciparum [2]) | CC50 [3] [µM] |
| --- | --- | --- | --- |
| Cc1c2oc3c(C)ccc(C(=O)NC4C(=O)N[C@@H](C(C)C)C(=O)N5CCCC5C(=O)N(C)CC(=O)N(C)C(C(C)C)C(=O)OC4C)c3nc-2c(C(=O)NC2C(=O)N[C@H](C(C)C)C(=O)N3CCCC3C(=O)N(C)CC(=O)N(C)C(C(C)C)C(=O)OC2C)c(N)c1=O (some centres undefined) (I: [ξT]V[ξP][Sar][ξNMeV] / II: [ξT][dV][ξP][Sar][ξNMeV]; ester I:1-I:C, II:1-II:C; linker I:N-II:N via Actinocin(9to1)) | 7.59 | 7.68 | 0.296 |
| CC(=O)Nc1cccc(N(C(=O)C2COc3ccccc3O2)C(C(=O)NC2CCCCC2)c2ccc(O)cc2)c1 (centres undefined) | < 5.90 | < 5.96 | > 10 |
| CCCNC1=C(N(C(C)=O)c2ccc(C)cc2)C(=O)c2ccccc2C1=O | 7.89 | 7.88 | 4.33 |
| O=C(ON=C(c1ccncc1)c1ccc(Cl)cc1)c1ccccc1 | 5.91 | < 7.32 | > 10 |
| O=C(NC1CCN(CC(O)CN(Cc2ccccc2)S(=O)(=O)c2ccccc2)C1)c1cccc2ccccc12 (centres undefined) | 7.08 | > 8.08 | > 10 |
| CCC(/C=C1\Sc2ccc(OC)cc2N1CCCS(=O)(=O)O)=C\c1sc2ccc(OC)cc2[n+]1CCCS(=O)(=O)O | 6.33 | 5.98 | 10.1 |
| Cc1cc(C)c2c(c1)OCN(Cc1ccccc1Cl)C2 | 6.72 | 6.52 | > 100 |
| O=C(c1ccc([N+](=O)[O-])cc1[N+](=O)[O-])N1CCCCC1 | < 4.90 | 5.31 | > 100 |
| COc1ccc(C(=O)N(CCCC(C)Nc2cc(OC)cc3cccnc23)Cc2ccccc2OC)cc1 (centres undefined) | 6.15 | 6.57 | 5.18 |
| CC[n+]1cccc2ccc3cccnc3c21 | 6.26 | 6.59 | > 100 |
| CC(C)(C)c1ccc(C(=O)Nc2ccc(NC(=O)c3ccc(-c4ccc([N+](=O)[O-])cc4)o3)cc2)cc1 | 5.92 | 5.48 | > 100 |
| Cc1ccc(C(CCNc2ncnc3c2[nH]c2ccccc23)c2ccco2)cc1 (centres undefined) | 6.13 | 6.28 | 19.4 |
| Cc1cccc(CCNc2cc(C)nc3ncnn23)c1 | 6.08 | 5.97 | > 100 |
| CC(C)CNC(=O)c1cnc(NCCCN(C)C)nc1NCCc1ccccc1 | 6.01 | < 5.90 | > 10 |
| OC1=C2C(=Nc3ccccc3SC2c2ccco2)c2ccccc21 (centres undefined) | 6.60 | 6.46 | 55.3 |
| COCCOC(=O)C1=C(C)NC2=C(C(=O)CC(c3ccc(OC)c(OC)c3)C2)C1c1ccc(Cl)cc1Cl (centres undefined) | 7.65 | 7.88 | > 100 |
| COc1cccc(CN2CCN(C3CCCC(C)C3)CC2)c1OC (centres undefined) | < 4.90 | < 5.17 | > 100 |

| SMILES | pEC50 (Plasmodium falciparum [1]) | pEC50 (Plasmodium falciparum [2]) | CC50 [3] [µM] |
| --- | --- | --- | --- |
| CCN1CCN(c2nc3ccccn3c(=O)c2C=C2SC(=S)N(C(C)C)C2=O)CC1 | 6.15 | 6.52 | 79 |
| Cc1ccc2[nH]c(/C(C#N)=C/c3cn(Cc4ccc(Cl)cc4Cl)nc3-c3ccccc3)nc2c1 | < 5.99 | 5.73 | > 10 |
| CCOC(=O)c1c(NC(=O)Cc2ccc([N+](=O)[O-])cc2)sc2c1CCCC2 | < 5.98 | < 5.90 | > 10 |
| COc1ccc2nc3cc(Cl)ccc3c(Nc3ccc(O)cc3)c2c1 | 6.09 | 6.07 | > 10 |
| COc1cc2nc(CN(C)C(C)c3cccs3)nc(N3CCCC3)c2cc1OC (centres undefined) | < 4.90 | 5.70 | 26.4 |
| O=C(NCc1ccccc1C(F)(F)F)C1CC(O)CN1C(=O)Nc1ccccc1 (centres undefined) | < 5.90 | 6.82 | > 10 |
| COc1ccc2nc(C)cc(Nc3ccc(Oc4ccc5ccccc5c4Cl)c(Cl)c3)c2c1 | 7.00 | 6.31 | 64.1 |
| CC1(C)C(=O)C2(CCCCC2)C(=O)OC1/C=C/c1ccccc1 (centres undefined) | < 5.90 | 7.91 | > 10 |
| COc1ccc(OC)c(-c2ccc(O)c(CNCC3CCCCC3)c2)c1 | 6.46 | 6.92 | > 10 |
| Cc1ccc(Nc2nc(NCc3ccco3)c3ccccc3n2)cc1 | 6.90 | 6.67 | 5.27 |
| CCCCCCN(C(=O)c1ccc(C(C)(C)C)cc1)C(CC)c1nc2ccccc2c(=O)n1-c1ccccc1OC (centres undefined) | 6.45 | 6.46 | > 10 |
| CCCCN(CCCC)S(=O)(=O)c1cc(Br)cc2c1N(C(C)=O)CC2 | 5.48 | 5.96 | > 100 |
| CCOc1ccc(C(=O)C(CCC(C[N+]2(C)CCCCCC2)C(=O)c2ccc(OCC)cc2)C[N+]2(C)CCCCCC2)cc1 (centres undefined) | 6.21 | 6.16 | > 100 |
| CN(C)CCCN(Cc1cc2cc3c(cc2[nH]c1=O)OCO3)C(=S)Nc1cccc(Cl)c1 | 6.01 | 6.04 | > 100 |
| O=C(NC1CCN(Cc2ccccc2)CC1)[C@@H](c1ccccc1)N1Cc2ccccc2C1=O | < 4.90 | 5.38 | > 100 |
| CCc1ccc2c(c1)C(c1ccncc1)=NNC(c1ccncc1)=N2 | 6.05 | < 5.89 | > 10 |
